# From ChEMBL document CHEMBL1151685, “Structure-activity relationship of antibacterial chalcones” (2008)
# Assays:
# Format in all cases: functional
# Pseudomonas aeruginosa = experiment: Antibacterial activity against Pseudomonas aeruginosa ATCC 27853 after 24 hrs by microdilution broth method; details: ATCC 27853, 24 h
# Bacillus cereus = experiment: Antibacterial activity against Bacillus cereus ATCC 11778 after 24 hrs by microdilution broth method; details: ATCC 11778, 24 h
# Escherichia coli = experiment: Antibacterial activity against Escherichia coli ATCC 25922 after 24 hrs by microdilution broth method; details: ATCC 25922, 24 h
# Staphylococcus aureus = experiment: Antibacterial activity against Staphylococcus aureus ATCC 25923 after 24 hrs by microdilution broth method; details: ATCC 25923, 24 h
SMILES,MBC (Pseudomonas aeruginosa) [µg/mL],MIC (Pseudomonas aeruginosa) [µg/mL],MBC (Bacillus cereus) [µg/mL],MIC (Bacillus cereus) [µg/mL],MBC (Escherichia coli) [µg/mL],MIC (Escherichia coli) [µg/mL],MBC (Staphylococcus aureus) [µg/mL],MIC (Staphylococcus aureus) [µg/mL]
COc1ccc(C(=O)/C=C/c2ccccc2O)cc1OC,> 2000,1000,1000,1000,2000,1000,2000,1000
COc1ccc(C(=O)/C=C/c2ccc(O)cc2)c(O)c1CC=C(C)C,2000,2000,3.9,3.9,2000,2000,7.8,7.8
COc1cc(OC)c(OC)cc1/C=C/C(=O)c1ccc(OC)c(OC)c1,> 2000,2000,> 2000,2000,> 2000,1000,> 2000,2000
COc1cc(OC)c(OC)cc1/C=C/C(=O)c1cc(OC)c(OC)cc1OC,2000,2000,> 2000,> 2000,> 2000,> 2000,> 2000,> 2000
COc1ccc(C(=O)/C=C/c2cccc(O)c2)c(O)c1CC=C(C)C,2000,2000,1000,1000,2000,2000,2000,2000
COc1ccc(C(=O)/C=C/c2ccccc2)c(O)c1CC=C(C)C [DERRICIN],2000,2000,2000,2000,2000,2000,> 2000,2000
"COc1ccc(/C=C/C(=O)c2ccc(OC)cc2)cc1 [4,4'-DIMETHOXYCHALCONE]",2000,2000,> 2000,> 2000,> 2000,> 2000,> 2000,> 2000
COc1ccc(C(=O)/C=C/c2ccc(O)cc2)cc1,2000,1000,2000,2000,2000,1000,2000,2000
CC(C)=CCOc1ccc(C(=O)/C=C/c2ccc(O)cc2)c(O)c1,2000,2000,1000,1000,> 2000,2000,2000,2000
O=C(/C=C/c1ccc(O)cc1)c1ccc(O)cc1O [ISOLIQUIRITIGENIN],2000,2000,62.5,62.5,2000,2000,62.5,62.5
CC(C)=CCC/C(C)=C\Cc1c(O)ccc(C(=O)/C=C/c2ccc(O)cc2)c1O,2000,1000,15.6,15.6,2000,1000,31.2,31.2
COc1ccc(/C=C/C(=O)c2cc(OC)c(OC)cc2O)cc1,> 2000,1000,> 2000,1000,> 2000,2000,> 2000,2000
COc1ccc(/C=C/C(=O)c2ccc(OC)c(CC=C(C)C)c2O)cc1,2000,2000,2000,2000,> 2000,2000,2000,2000
COc1cc(OC)c(C(=O)/C=C/c2ccc3c(c2)OCO3)c(OC)c1OC,2000,2000,> 2000,2000,2000,2000,> 2000,> 2000
COc1ccc(C(=O)/C=C/c2ccccc2O)c(O)c1CC=C(C)C,2000,2000,2000,2000,2000,2000,> 2000,2000
CN(C)[C@@H]1C(O)=C(C(N)=O)C(=O)[C@@]2(O)C(O)=C3C(=O)c4c(O)cccc4[C@@](C)(O)[C@H]3C[C@@H]12 [TETRACYCLINE],–,32,–,0.25,–,2,–,1

SMILES,MBC (Pseudomonas aeruginosa) [µg/mL],MIC (Pseudomonas aeruginosa) [µg/mL],MBC (Bacillus cereus) [µg/mL],MIC (Bacillus cereus) [µg/mL],MBC (Escherichia coli) [µg/mL],MIC (Escherichia coli) [µg/mL],MBC (Staphylococcus aureus) [µg/mL],MIC (Staphylococcus aureus) [µg/mL]
CC(C)=CCOc1ccc(C(=O)/C=C/c2ccccc2)c(O)c1 [CORDOIN],2000,2000,2000,2000,> 2000,2000,> 2000,2000
COc1cc(C(=O)CCc2ccccc2)c(OC)c(CC=C(C)C)c1OC,2000,2000,2000,2000,2000,2000,> 2000,2000
"COc1ccc(C(=O)/C=C/c2ccccc2)cc1OC [3',4'-DIMETHOXYCHALCONE]",2000,1000,1000,1000,1000,2000,2000,1000
COc1cc(OC)c(C(=O)CCc2ccc3c(c2)OCO3)cc1OC,2000,2000,2000,2000,2000,2000,2000,2000
CC1(C)C=Cc2cc(C(=O)/C=C/c3ccc(O)cc3)c(O)cc2O1 [4-HYDROXYISOLONCHOCARPIN],> 2000,2000,> 2000,1000,> 2000,2000,> 2000,1000
CC1(C)C=Cc2c(ccc(C(=O)/C=C/c3ccccc3)c2O)O1 [LONCHOCARPIN],2000,2000,2000,2000,1000,1000,2000,2000
CC(C)=CCc1c(O)ccc(C(=O)/C=C/c2ccccc2)c1O [ISOCORDOIN],1000,2000,2000,2000,2000,2000,2000,2000
O=C(CCc1ccc(O)cc1)c1c(O)cc(O)cc1O [PHLORETIN],2000,2000,250,250,1000,> 2000,250,250
CC1(C)C=Cc2cc(C(=O)/C=C/c3ccccc3)c(O)cc2O1 [ISOLONCHOCARPIN],> 2000,2000,> 2000,1000,> 2000,2000,> 2000,2000
O=C(CCc1ccccc1O)c1ccccc1,2000,1000,500,500,2000,2000,500,500
COc1ccccc1/C=C/C(=O)c1cc(OC)c(OC)cc1OC,2000,2000,250,250,2000,2000,1000,1000
COc1ccc(C(=O)/C=C/c2c(OC)cc(OC)c(OC)c2OC)cc1OC,> 2000,2000,2000,2000,> 2000,2000,> 2000,2000
CC(C)=CCC/C(C)=C\Cc1c(O)ccc(C(=O)/C=C/c2ccc(O)c(CC=C(C)C)c2)c1O,2000,1000,15.6,15.6,2000,1000,31.2,31.2
CC(C)=CCc1c(O)ccc(C(=O)/C=C/c2ccc(O)cc2)c1O [ISOBAVACHALCONE],2000,1000,31.2,31.2,1000,1000,31.2,31.2
COc1ccc(/C=C/C(=O)c2c(OC)cc(OC)c(OC)c2OC(C)=O)cc1,2000,1000,> 2000,2000,> 2000,1000,> 2000,2000
